Measurements reported in patent US9586928B2 (The Scripps Research Institute, priority 2011, dated 2017).

Tests used:
GST-RORγ = target: T1, GST-RORγ (Homo sapiens, UniProt P51449); assay: RORγ scintillation proximity (SPA) radioligand binding assay, displacement of [3H]-T0901317; settings: read-out: RORγ SPA % bound = % radiolabel bound; for remaining activity at 10 µM: 10 μM compound; for remaining activity at 1 µM: 1 μM compound (Table 2D)
T1 construct: 1 μg of GST-RORγ-LBD, 5 nM of [3H]T1317 as radioligand
T1 sequence (P51449 269-508 limits assumed): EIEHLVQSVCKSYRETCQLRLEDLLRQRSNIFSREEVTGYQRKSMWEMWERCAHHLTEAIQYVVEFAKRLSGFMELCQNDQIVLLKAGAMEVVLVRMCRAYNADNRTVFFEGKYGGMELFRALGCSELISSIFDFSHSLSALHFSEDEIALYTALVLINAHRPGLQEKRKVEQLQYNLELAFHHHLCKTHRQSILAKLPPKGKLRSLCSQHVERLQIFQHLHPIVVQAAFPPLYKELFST

RORγ = target: T2, RORγ (Homo sapiens, UniProt P51449); assay: Gal4-RORγ LBD / UAS luciferase cotransfection assay; format: cell-based; settings: 10 μM
T2 construct: expressed in transfected cells; host or cells: HEK293T
T2 sequence (P51449 269-508 limits assumed): T1 sequence (P51449 269-508 limits assumed)
Experimental: (§1) The cells were treated with either DMSO or various compounds as indicated four hours after replating. Following additional 20 hour incubation, luciferase levels were assayed by one-step addition of 20 μL BriteLite (Perkin Elmer) and read using an Envision multilabel plate reader (Perkin Elmer).
Cotransfection assays were performed as previously described in HEK293 cells (Gal4 cotransfection assay or IL-17 luciferase reporter)[8]. HEK293 and the mouse lymphoma EL4 (ATCC) cells were maintained in DMEM supplemented with 10% FBS plus antibiotics (penicillin and streptomycin; Invitrogen).

VP16 = assay: Gal4 DBD-VP16 / UAS luciferase control assay; format: cell-based; settings: 10 μM
Experimental: as §1

Compound OC(c1ccc(-c2ccc(CN3CCN(Cc4ccncc4)CC3)cc2)cc1F)(C(F)(F)F)C(F)(F)F [Compound 105, 1,1,1,3,3,3-Hexafluoro-2-(3-fluoro-4′-((4-(pyridin-4-ylmethyl)piperazin-1-yl)methyl)-[1,1′-biphenyl]-4-yl)propan-2-ol] has a remaining activity at 10 µM (GST-RORγ) of 80%.
With COc1cc(-c2ccc(CN3CCN(Cc4ccncc4)CC3)cc2)ccc1C(O)(C(F)(F)F)C(F)(F)F [Compound 106, 1,1,1,3,3,3-Hexafluoro-2-(3-methoxy-4′-((4-(pyridin-4-ylmethyl)piperazin-1-yl)methyl)-[1,1′-biphenyl]-4-yl)propan-2-ol] the remaining activity at 10 µM (GST-RORγ) was 40%.
Cc1cc(-c2ccc(CN3CCN(Cc4ccncc4)CC3)cc2)ccc1C(O)(C(F)(F)F)C(F)(F)F [Compound 107, 1,1,1,3,3,3-Hexafluoro-2-(3-methyl-4′-((4-(pyridin-4-ylmethyl)piperazin-1-yl)methyl)-[1,1′-biphenyl]-4-yl)propan-2-ol] gave a remaining activity at 10 µM (GST-RORγ) of 100%.
OC(c1ccc(-c2ccc(CN3CCN(Cc4c[nH]cn4)CC3)cc2)cc1)(C(F)(F)F)C(F)(F)F [Compound 112, 2-(4′-((4-((1H-Imidazol-5-yl)methyl)piperazin-1-yl)methyl)-[1,1′-biphenyl]-4-yl)-1,1,1,3,3,3-hexafluoropropan-2-ol] was tested, and the remaining activity at 10 µM (GST-RORγ) was 48%.
For CC1CN(Cc2ccc(-c3ccc(C(O)(C(F)(F)F)C(F)(F)F)cc3)cc2)CCN1Cc1ccncc1 (centres unmarked) [Compound 117], the remaining activity at 10 µM (GST-RORγ) was 20%.
CC1CN(Cc2ccncc2)CCN1Cc1ccc(-c2ccc(C(O)(C(F)(F)F)C(F)(F)F)cc2)cc1 (centres unmarked) [Compound 118] gave a remaining activity at 10 µM (GST-RORγ) of 20%.
O=C1CN(Cc2ccc(-c3ccc(C(O)(C(F)(F)F)C(F)(F)F)cc3)cc2)CCN1Cc1ccncc1 [Compound 119] was tested, and the remaining activity at 10 µM (GST-RORγ) was 15%.
O=C1CN(Cc2ccncc2)CCN1Cc1ccc(-c2ccc(C(O)(C(F)(F)F)C(F)(F)F)cc2)cc1 [Compound 120] was tested, and the remaining activity at 10 µM (GST-RORγ) was 15%.
O=C(Nc1ccc(-c2ccc(C(O)(C(F)(F)F)C(F)(F)F)cc2)cc1)N1CCN(Cc2ccncc2)CC1 [Compound 136, N-(4′-(1,1,1,3,3,3-hexafluoro-2-hydroxypropan-2-yl)-[1,1′-biphenyl]-4-yl)-4-(pyridin-4-ylmethyl)piperazine-1-carboxamide] showed a remaining activity at 1 µM (GST-RORγ) of 76%.
For O=C(Cc1ccc(-c2ccc(C(O)(C(F)(F)F)C(F)(F)F)cc2)cc1)N1CCN(Cc2ccncc2)CC1 [Compound 137, 2-(4′-(1,1,1,3,3,3-hexafluoro-2-hydroxypropan-2-yl)-[1,1′-biphenyl]-4-yl)-1-(4-(pyridin-4-ylmethyl)piperazin-1-yl)ethanone], the remaining activity at 1 µM (GST-RORγ) was 81%.
Work on O=S(=O)(c1ccc(-c2ccc(C(O)(C(F)(F)F)C(F)(F)F)cc2)cc1)N1CCN(Cc2ccncc2)CC1 [Compound 138, 1,1,1,3,3,3-hexafluoro-2-(4′-((4-(pyridin-4-ylmethyl)piperazin-1-yl)sulfonyl)-[1,1′-biphenyl]-4-yl)propan-2-ol] yielded a remaining activity at 1 µM (GST-RORγ) of 68%.
Compound OC(c1ccc(-c2ccc3c(c2)CCC3N2CCN(Cc3ccncc3)CC2)cc1)(C(F)(F)F)C(F)(F)F (centres unmarked) [Compound 139, 1,1,1,3,3,3-hexafluoro-2-(4-(1-(4-(pyridin-4-ylmethyl)piperazin-1-yl)-2,3-dihydro-H I-inden-5-yl)phenyl)propan-2-ol] has a remaining activity at 1 µM (GST-RORγ) of 59%.
CC(c1ccc(-c2ccc(C(O)(C(F)(F)F)C(F)(F)F)cc2)cc1)N1CCN(Cc2ccncc2)CC1 (centres unmarked) [Compound 140, 1,1,1,3,3,3-hexafluoro-2-(4′-(1-(4-(pyridin-4-ylmethyl)piperazin-1-yl)ethyl)-[1,1′-biphenyl]-4-yl)propan-2-ol] was tested, and the remaining activity at 1 µM (GST-RORγ) was 74%.
Compound CCC(c1ccc(-c2ccc(C(O)(C(F)(F)F)C(F)(F)F)cc2)cc1)N1CCN(Cc2ccncc2)CC1 (centres unmarked) [Example 141, 1,1,1,3,3,3-hexafluoro-2-(4′-(1-(4-(pyridin-4-ylmethyl)piperazin-1-yl)propyl)-[1,1′-biphenyl]-4-yl)propan-2-ol] has a remaining activity at 1 µM (GST-RORγ) of 74%.
CCCCC(c1ccc(-c2ccc(C(O)(C(F)(F)F)C(F)(F)F)cc2)cc1)N1CCN(Cc2ccncc2)CC1 (centres unmarked) [Example 142, 1,1,1,3,3,3-hexafluoro-2-(4′-(1-(4-(pyridin-4-ylmethyl)piperazin-1-yl)pentyl)-[1,1′-biphenyl]-4-yl)propan-2-ol] was tested, and the remaining activity at 1 µM (GST-RORγ) was 73%.
With CC(Cc1ccc(-c2ccc(C(O)(C(F)(F)F)C(F)(F)F)cc2)cc1)N1CCN(Cc2ccncc2)CC1 (centres unmarked) [Example 143, 1,1,1,3,3,3-hexafluoro-2-(4′-(2-(4-(pyridin-4-ylmethyl)piperazin-1-yl)propyl)-[1,1′-biphenyl]-4-yl)propan-2-ol] the remaining activity at 1 µM (GST-RORγ) was 74%.
Compound OC(c1ccc(-c2ccc(CCN3CCN(Cc4ccncc4)CC3)cc2)cc1)(C(F)(F)F)C(F)(F)F [Example 144, 1,1,1,3,3,3-hexafluoro-2-(4′-(2-(4-(pyridin-4-ylmethyl)piperazin-1-yl)ethyl)-[1,1′-biphenyl]-4-yl)propan-2-ol] has a remaining activity at 1 µM (GST-RORγ) of 61%.
With O=S(=O)(c1cccs1)N1CCN(Cc2ccc(-c3ccc(C(O)(C(F)(F)F)C(F)(F)F)cc3)cc2)CC1 [Example 145, 1,1,1,3,3,3-Hexafluoro-2-(4′-((4-(thiophen-2-ylsulfonyl)piperazin-1-yl)methyl)-[1,1′-biphenyl]-4-yl)propan-2-ol] the “RORγ repression, fold change over DMSO” value (RORγ) was 3.0 fold change over DMSO and the “VP16 repression, fold change over DMSO” value (VP16) was 3.0 fold change over DMSO.
For O=S(=O)(c1ccc(C(F)(F)F)cc1)N1CCN(Cc2ccc(-c3ccc(C(O)(C(F)(F)F)C(F)(F)F)cc3)cc2)CC1 [Example 146, 1,1,1,3,3,3-Hexafluoro-2-(4′-((4-((4-(trifluoromethyl)phenyl)sulfonyl)piperazin-1-yl)methyl)-[1,1′-biphenyl]-4-yl)propan-2-ol], the “RORγ repression, fold change over DMSO” value (RORγ) was 0.9 fold change over DMSO and the “VP16 repression, fold change over DMSO” value (VP16) was 0.7 fold change over DMSO.
In the case of O=S(=O)(c1ccc(CBr)cc1)N1CCN(Cc2ccc(-c3ccc(C(O)(C(F)(F)F)C(F)(F)F)cc3)cc2)CC1 [Example 147, 2-(4′-((4-((4-(Bromomethyl)phenyl)sulfonyl)piperazin-1-yl)methyl)-[1,1′-biphenyl]-4-yl)-1,1,1,3,3,3-hexafluoropropan-2-ol], the “RORγ repression, fold change over DMSO” value (RORγ) is reported as 0.5 fold change over DMSO and the “VP16 repression, fold change over DMSO” value (VP16) is reported as 0.5 fold change over DMSO.
Cc1ccc([N+](=O)[O-])cc1S(=O)(=O)N1CCN(Cc2ccc(-c3ccc(C(O)(C(F)(F)F)C(F)(F)F)cc3)cc2)CC1 [Example 148, 1,1,1,3,33-Hexafluoro-2-(4′-((4-((2-methyl-5-nitrophenyl)sulfonyl)piperazin-1-yl)methyl)-[1,1′-biphenyl]-4-yl)propan-2-ol] was tested, and the “RORγ repression, fold change over DMSO” value (RORγ) was 0.4 fold change over DMSO and the “VP16 repression, fold change over DMSO” value (VP16) was 1.0 fold change over DMSO.
For O=[N+]([O-])c1ccc(S(=O)(=O)N2CCN(Cc3ccc(-c4ccc(C(O)(C(F)(F)F)C(F)(F)F)cc4)cc3)CC2)cc1 [Example 149, 1,1,1,3,3,3-Hexafluoro-2-(4′-((4-((4-nitrophenyl)sulfonyl)piperazin-1-yl)methyl)-[1,1′-biphenyl]-4-yl)propan-2-ol], the “RORγ repression, fold change over DMSO” value (RORγ) was 0.5 fold change over DMSO and the “VP16 repression, fold change over DMSO” value (VP16) was 0.7 fold change over DMSO.
With O=C(OCc1ccccc1)N1CCN(Cc2ccc(-c3ccc(C(O)(C(F)(F)F)C(F)(F)F)cc3)cc2)CC1 [Example 150, Benzyl 4-((4′-(1,1,1,3,3,3-hexafluoro-2-hydroxypropan-2-yl)-[1,1′-biphenyl]-4-yl)methyl)piperazine-1-carboxylate] the “RORγ repression, fold change over DMSO” value (RORγ) was 0.5 fold change over DMSO and the “VP16 repression, fold change over DMSO” value (VP16) was 0.9 fold change over DMSO.
With O=C(Oc1ccc([N+](=O)[O-])cc1)N1CCN(Cc2ccc(-c3ccc(C(O)(C(F)(F)F)C(F)(F)F)cc3)cc2)CC1 [Example 151, 4-Nitrophenyl 4-((4′-(1,1,1,3,3,3-hexafluoro-2-hydroxypropan-2-yl)-[1,1′-biphenyl]-4-yl)methyl)piperazine-1-carboxylate] the “RORγ repression, fold change over DMSO” value (RORγ) was 0.6 fold change over DMSO and the “VP16 repression, fold change over DMSO” value (VP16) was 0.6 fold change over DMSO.
OC(c1ccc(-c2ccc(CN3CCN(Cc4ccc5cc[nH]c5c4)CC3)cc2)cc1)(C(F)(F)F)C(F)(F)F [Example 154, 2-(4′-((4-((1H-indol-6-yl)methyl)piperazin-1-yl)methyl)-[1,1′-biphenyl]-4-yl)-1,1,1,3,3,3-hexafluoropropan-2-ol] was tested, and the remaining activity at 1 µM (GST-RORγ) was 90%.
OC(c1ccc(-c2ccc(CN3CCN(Cc4ccc5nc[nH]c5c4)CC3)cc2)cc1)(C(F)(F)F)C(F)(F)F [Example 155, 2-(4′-((4-((1H-benzo[d]imidazol-6-yl)methyl)piperazin-1-yl)methyl)-[1,1′-biphenyl]-4-yl)-1,1,1,3,3,3-hexafluoropropan-2-ol] was tested, and the remaining activity at 1 µM (GST-RORγ) was 100%.
CC(C)Oc1cc(C(O)(C(F)(F)F)C(F)(F)F)ccc1-c1ccc(CN2CCN(Cc3ccncc3)CC2)cc1 [Example 156, 1,1,1,3,3,3-hexafluoro-2-(2-isopropoxy-4′-((4-(pyridin-4-ylmethyl)piperazin-1-yl)methyl)-[1,1′-biphenyl]-4-yl)propan-2-ol] showed a remaining activity at 1 µM (GST-RORγ) of 75%.
Compound CC(C)CCN1CCN(Cc2ccc(-c3ccc(C(O)(C(F)(F)F)C(F)(F)F)cc3)cc2)CC1 [Example 157, 1,1,1,3,3,3-hexafluoro-2-(4′-((4-isopentylpiperazin-1-yl)methyl)-[1,1′-biphenyl]-4-yl)propan-2-ol] has a remaining activity at 1 µM (GST-RORγ) of 20%.
